Columns and labels:
Test in all cases: Colony formation assay, transfected expression vectors
Type in all cases: cell-based
[1] = tested on: MeWo (melanoma cells); details: nucleic acid coding for peptide transfected
Source text: (§1) The nucleic acids coding for the peptides of TABLE 3 were cloned into mammalian expression vectors and transfected into different cells to observe their further growth. By using a HIS-tag it was possible to verify that all peptide sequences could be expressed.

[2] = tested on: livin-negative C33a cells; details: nucleic acid coding for peptide transfected; FIG. 3
Source text: (§2) Expression vectors bearing the nucleic acid coding for peptide number 75 (corresponds to SEQ ID No: 127 or number 41 of TABLE 2) or bearing the nucleic acid coding for control peptide were introduced in HeLa cells and livin-negative C33a cells. The cells were selected for stable transfectants.
as §1

[3] = tested on: livin-expressing HeLa cells; details: nucleic acid coding for peptide transfected; FIG. 3
Source text: as §2, §1

For “GSRCIRRRISILFFVFRVLRSRRVLRSAEIYES* (randomized peptide that bind to particular IAPs) [compound 75]”, the “growth of MeWo (melanoma cells)” value [1] was “blocked the growth”, the “growth of livin-negative C33a cells” value [2] was “not affected” and the “growth of livin-expressing HeLa cells” value [3] was “blocked the growth”.

— patent US7544768B2, “Peptides for inducing apoptosis in tumor cells” (Deutsches Krebsforschungszentrum Stiflung des Offentlichen …, priority 2002, dated 2009)
